In patent US7442706B2, “Methods for treating sarcopenia with a growth hormone secretagogue” (priority 2006, dated 2008):

Key:
[1] = Glucose metabolism: insulin sensitivity by Quicki, hemoglobin A1c; format: in vivo, human
Procedure: Assays and Insulin Sensitivity. Plasma glucose was measured on a Beckman analyzer and insulin and total IGF-I were measured in the GCRC Core Laboratory on an Immulite 2000 (Diagnostic Products Corporation, Los Angeles, Calif.). Additional safety laboratory tests were performed by standard methods in the UVA Clinical Laboratories. Fasting insulin and glucose were used to estimate insulin sensitivity by the Quicki method (4).
(§1) In each of the 2 years, volunteers were seen monthly the first 3 months and every 3 months thereafter for a physical examination, documentation of medications and vital signs, routine laboratory tests and detailed questioning about possible side effects. Fasting blood glucose and hemoglobin Alc (HBAlc) were monitored for possible changes with MK-677 treatment, since increased blood glucose had been observed in previous studies (11;15).

[2] = Monitoring for adverse effects, PSA, mammograms, pap smears, routine laboratory tests; format: in vivo, human
Procedure: Healthy men and women 60 years and older were eligible to participate. A schematic of the study design and details of subject inclusion/exclusion criteria, screening, enrollment, and attrition are shown in FIG. 1. Volunteers were carefully screened by medical history and physical examination to rule out underlying disease and extensive laboratory testing was performed before and frequently throughout the study. Participants were asked to maintain their typical diet and exercise throughout the study and to report any illnesses, medical procedures or side effects. Annual mammograms and pap smears were performed in women and levels of prostate-specific antigen (PSA) were monitored in men.
as §1

[3] = T-score for total appendicular skeletal mass TASM/ht^2 (sarcopenia index); format: in vivo, human
Procedure: The primary outcome measures were the effects of increased GH and IGF-I on AVF and FFM; additional outcomes included body weight, fat mass, body water compartments, 24-h GH secretory dynamics, insulin sensitivity, quality of life and physical performance. Because gender and height influence total muscle mass, an index of relative muscle mass was calculated: total ASM from DXA was divided by height squared in meters (TASM (kg)/ht^2). To put changes in FFM in a clinical perspective, a t-score was computed for each individual, relating the TASM/ht^2 to those of gender-specific young adults (12). In accordance with Baumgartner et al., sarcopenia was defined as ≦2 SD below young, gender-specific reference populations (13; 14).

GH = settings: healthy older men and women; 25 mg p.o. daily; cited from earlier work
[4] = Isokinetic muscle strength (Cybex II), knee and shoulder flexion and extension; format: in vivo, human; settings: 12 months
Procedure: Isokinetic Muscle Strength. Concentric force during flexion and extension of the knee and shoulder were determined using an isokinetic dynamometer Cybex II (CSM, Inc., Boston, Mass.). (11) Six repetitions of maximal effort over 90 degrees at 60 degrees/second were performed with the mean of the last 5 repetitions computed by proprietary software. Total work (Newton metres) was calculated by multiplying the mean per repetition by 5. Correction for Height and Gender. All strength and function measurements were analyzed per kg of skeletal muscle (ASM). Baseline arm ASM and leg ASM were used for shoulder and knee strength, respectively; baseline TASM (sum of arms and legs) was used for the function tests.

[5] = orally active; cited from earlier work

CC(C)(N)C(=O)N[C@H](COCc1ccccc1)C(=O)N1CCC2(CC1)CN(S(C)(=O)=O)c1ccccc12.CS(=O)(=O)O [MK-677, N-[1(R)-[(1,2-dihydro-1-methanesulfonylspiro[3H-indole-3,4′-piperidin]-1′-yl)carbonyl]-2-(phenylmethyloxy)ethyl]-2-amino-2-methylpropanamide methanesulfonate]
Insulin resistance estimated by Quicki ([1]; after 6 and 12 months of treatment, vs. placebo): increased significantly | hemoglobin A1c levels ([1]; most subjects on MK-677): slight elevations | serious side effects ([2]; daily treatment): without serious side effects | mammograms, pap smears, routine laboratory tests ([2]; during the 2 years of the study): no changes | time for appetite to return to normal ([2]; in about one-half the subjects): ≤ 3 months | PSA levels ([2]; men): declined significantly | transient muscle pain, subjects reporting ([2]; placebo 2/22): 14/43 | mild, transient edema, subjects reporting ([2]; placebo 6/22): 19/43 | increase in appetite, subjects reporting ([2]; placebo 8/22): 29/43 | Joint pain, subjects reporting ([2]; placebo 17/22): 25/43 | T-scores for TASM/ht^2 vs. placebo ([3]; 12 months): significantly increased | subjects with a decrease in t-score (TASM/ht^2) ([3]; end of year 1, 25 mg p.o. daily): 7 of 43 | IGF-I and pulsatile GH release, previously reported (GH): enhanced IGF-I and pulsatile GH release into the young adult normal range | shoulder flexion total work vs. placebo [4]: trend for prevention of this decline | total work in knee extension or flexion or in shoulder extension, between groups [4]: no change | diet-induced catabolism [5]: reverses diet-induced catabolism
